Measurements as given in article PMC9917550, “Discovery of Novel Thiazolidinedione-Derivatives with Multi-Modal Antidiabetic Activities In Vitro and In Silico” (International Journal of Molecular Sciences, 2023).

Assays:
α-amylase = biological target: T1, α-amylase (Sus scrofa, UniProt P00690); assay: α-amylase inhibition assay; format: biochemical; conditions: 10-50 µg/mL, versus control, p < 0.05
T1 sequence (P00690 16-511): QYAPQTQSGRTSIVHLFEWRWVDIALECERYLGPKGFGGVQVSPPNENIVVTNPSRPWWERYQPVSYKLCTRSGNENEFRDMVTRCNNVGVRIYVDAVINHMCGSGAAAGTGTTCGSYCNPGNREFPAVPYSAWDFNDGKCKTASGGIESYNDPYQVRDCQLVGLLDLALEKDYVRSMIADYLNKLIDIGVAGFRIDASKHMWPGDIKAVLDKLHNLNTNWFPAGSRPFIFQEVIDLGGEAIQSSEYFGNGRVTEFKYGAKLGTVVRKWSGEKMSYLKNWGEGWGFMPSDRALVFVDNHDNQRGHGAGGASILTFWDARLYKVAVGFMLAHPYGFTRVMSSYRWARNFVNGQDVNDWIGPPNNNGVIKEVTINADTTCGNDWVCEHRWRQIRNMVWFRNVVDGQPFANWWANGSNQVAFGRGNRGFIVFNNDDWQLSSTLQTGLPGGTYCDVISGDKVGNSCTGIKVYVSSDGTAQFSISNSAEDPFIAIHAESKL
Experimental: The α-amylase inhibitory activity was determined using the method described by the Worthington Enzyme Manual with slight modifications. The TZD derivatives were assayed at 10, 20, 30, 40, and 50 µg/mL. […] The sodium phosphate buffer was used as a blank. The inhibitory activity was calculated according to the equation:
Inhibition (%) = ((Acontrol − Asample)/Acontrol) × 100%, where Acontrol was the absorbance of the control (without the inhibitor); Asample was the absorbance in the presence of TZD derivatives.

α-glucosidase [1] = biological target: T2, α-glucosidase (Saccharomyces cerevisiae, UniProt P53341); format: biochemical
aldose reductase = aldose reductase (Homo sapiens, UniProt P15121); assay: Aldose reductase inhibition assay; format: biochemical; conditions: for aldose reductase inhibitory activity (in words): 10-50 µg/mL, versus control, p < 0.05; for IC50: read-out: IC50 for the Inhibitory Activity Assays, AR (converted)
Experimental: The aldose reductase (AR) inhibition assay was performed according to the method described by Kazeem et al. with minor modifications. All the TZD derivatives were assayed at 10, 20, 30, 40, and 50 µg/mL. […] The absolute standard contained all the reagents used except for the inhibitor compounds. The aldose reductase inhibition activity was calculated as a percentage inhibition from:
(§1) % Inhibition = [(∆Abscontrol − ∆Abssample)/∆Abscontrol] × 100%, where ∆Abs is the change is absorbance.

[2] = biological target: T3, protein tyrosine phosphatase-1B (PTP-1B) (Homo sapiens, UniProt P18031); assay: Protein tyrosine phosphatase-1B inhibition assay; format: biochemical; conditions: for PTP-1B inhibitory activity (in words): 10-50 µg/mL, versus control; for IC50: read-out: IC50 for the Inhibitory Activity Assays, PTP-1B (converted)
T3 sequence (P18031 1-435): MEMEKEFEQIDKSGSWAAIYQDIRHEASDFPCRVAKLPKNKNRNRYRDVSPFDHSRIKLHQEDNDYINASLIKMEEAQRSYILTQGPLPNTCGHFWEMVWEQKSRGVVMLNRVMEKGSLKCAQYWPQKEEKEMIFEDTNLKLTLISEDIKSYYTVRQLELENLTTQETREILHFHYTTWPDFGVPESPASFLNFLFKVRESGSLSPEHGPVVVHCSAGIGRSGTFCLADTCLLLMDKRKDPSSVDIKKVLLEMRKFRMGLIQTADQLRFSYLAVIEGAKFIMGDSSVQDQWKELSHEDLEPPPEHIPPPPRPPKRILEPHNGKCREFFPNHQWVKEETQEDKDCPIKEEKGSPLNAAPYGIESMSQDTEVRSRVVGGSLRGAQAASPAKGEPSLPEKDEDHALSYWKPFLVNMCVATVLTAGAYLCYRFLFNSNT
Experimental: The protein tyrosine phosphatase-1B (PTP-1B) inhibition assay was performed according to the method described by Song et al. with some modifications. […] The absolute control contained all the reagents used except the inhibitor compounds. The inhibition activity was calculated using:
as §1

DPP-4 = biological target: T4, DPP-4 (Homo sapiens, UniProt P27487); assay: Dipeptidyl peptidase-4 inhibition assay (DPP-4 Inhibitor Screening Kit); format: biochemical; conditions: for DPP-4 inhibitory activity (in words): 10-50 µg/mL, versus control; for IC50: read-out: IC50 for the Inhibitory Activity Assays, DPP-4 (converted); for DPP-4 inhibition: 10, 20, 30, 40 and 50 µg/mL
T4 construct: purchased Sigma-Aldrich MAK203
Experimental: This assay was performed according to the DPP-4 Inhibitor Screening Kit (catalogue number: MAK203) product information (Sigma-Aldrich.com) with minor modifications to the volumes to suit the 96-well plate assay.

liver cells (HEP-G2) = assay: Glucose uptake in liver cells; format: cell-based; conditions: 25, 50 and 100 µg/mL, 24 h, versus control
Experimental: HEPG-2 liver cells were cultured in MEME supplemented with pen/strep (1%) and FBS (10%) in a […] under tissue culture conditions. Upon confluency (80%), cells were trypsinized and seeded into the 96-well plates. Upon confluency, the cell preparations were exposed to different concentrations (25, 50, and 100 µg/mL) of TZDDs, and a media glucose reading was taken before incubation (time = 0). Thereafter, the plates containing cells and treatments were incubated for 24 h under tissue culture conditions. The non-treated cells and insulin treated cells served as absolute and positive controls, respectively. After a 24 h incubation, the medium glucose was taken using a glucometer. The percentage glucose uptake was calculated as follows:
Glucose uptake (%) = (T24/T0) × 100

α-glucosidase [3] = biological target: T2, α-glucosidase; assay: Mode of inhibition of α-glucosidase (Michaelis-Menten, Lineweaver-Burk); format: biochemical; conditions: substrate pNPG
Experimental: The Ki values were calculated with GraphPad Prism 9.2.0. (332) by plotting the reciprocal of maximum velocity (1/Vmax) (y-axis) against the derivative concentrations (x-axis). The types of inhibition parameters were all calculated with GraphPad Prism 9.2.0. Briefly, 30 µL of α-glucosidase enzyme (0.5 IU/mL) was dissolved in the 0.02 M phosphate buffer (pH 6.9), and then was pre-incubated at 37 °C with the above-mentioned derivative (50 µL) in a 96-well plate, for 5 min. In sequence, pNPG (0.125, 0.250, 0.500, 0.750, 1.000, 1.500, 2.000, 2.500, and 5.000 mM) was added and incubated in the reaction mixture at 37 °C for 30 min.

T2 sequence (P53341 whole entry): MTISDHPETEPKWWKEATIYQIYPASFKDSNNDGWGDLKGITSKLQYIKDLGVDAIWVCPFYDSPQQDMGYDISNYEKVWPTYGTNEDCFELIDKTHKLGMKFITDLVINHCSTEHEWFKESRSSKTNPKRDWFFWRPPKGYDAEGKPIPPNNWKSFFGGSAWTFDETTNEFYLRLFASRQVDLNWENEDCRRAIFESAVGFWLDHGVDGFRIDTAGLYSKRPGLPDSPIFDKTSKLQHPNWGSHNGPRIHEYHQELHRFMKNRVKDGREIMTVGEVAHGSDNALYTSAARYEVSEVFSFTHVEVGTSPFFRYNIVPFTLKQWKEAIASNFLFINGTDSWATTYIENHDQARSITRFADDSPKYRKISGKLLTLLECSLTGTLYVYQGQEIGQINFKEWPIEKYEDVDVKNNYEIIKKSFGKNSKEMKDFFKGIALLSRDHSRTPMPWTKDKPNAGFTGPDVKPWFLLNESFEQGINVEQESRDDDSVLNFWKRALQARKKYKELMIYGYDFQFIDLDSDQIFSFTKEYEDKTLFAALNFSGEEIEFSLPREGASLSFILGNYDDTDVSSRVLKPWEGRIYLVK
T4 sequence (P27487 whole entry, species assumed): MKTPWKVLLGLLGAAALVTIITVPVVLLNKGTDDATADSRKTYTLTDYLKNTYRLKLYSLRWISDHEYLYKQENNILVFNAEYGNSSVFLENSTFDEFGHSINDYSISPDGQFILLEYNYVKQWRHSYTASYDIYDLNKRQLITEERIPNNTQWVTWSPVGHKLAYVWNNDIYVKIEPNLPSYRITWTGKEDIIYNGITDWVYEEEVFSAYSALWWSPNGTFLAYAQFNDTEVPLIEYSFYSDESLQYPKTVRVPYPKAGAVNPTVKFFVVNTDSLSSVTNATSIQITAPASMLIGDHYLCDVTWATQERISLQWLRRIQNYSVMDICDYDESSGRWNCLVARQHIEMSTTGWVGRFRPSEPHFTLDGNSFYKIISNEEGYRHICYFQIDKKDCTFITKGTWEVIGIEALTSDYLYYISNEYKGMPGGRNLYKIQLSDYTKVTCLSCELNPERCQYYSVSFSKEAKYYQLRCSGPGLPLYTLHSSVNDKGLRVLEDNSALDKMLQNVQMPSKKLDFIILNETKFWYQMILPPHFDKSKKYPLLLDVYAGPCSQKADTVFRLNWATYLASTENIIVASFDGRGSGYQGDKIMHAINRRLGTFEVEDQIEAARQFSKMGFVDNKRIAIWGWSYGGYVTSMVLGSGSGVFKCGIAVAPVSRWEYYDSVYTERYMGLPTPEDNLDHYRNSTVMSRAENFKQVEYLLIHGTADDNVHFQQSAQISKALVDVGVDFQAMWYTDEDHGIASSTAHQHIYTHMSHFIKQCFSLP

For `C[C@H]1O[C@H](O[C@H]2[C@H](O)[C@@H](O)[C@@H](O[C@H]3[C@H](O)[C@@H](O)C(O)O[C@@H]3CO)O[C@@H]2CO)[C@H](O)[C@@H](O)[C@@H]1N[C@H]1C=C(CO)[C@@H](O)[C@H](O)[C@H]1O` (stereo partly drawn) [Acarbose, reference compound], the “α-amylase inhibitory activity (in words)” value (α-amylase) was “significant (p < 0.05) inhibitory activity” and the “α-glucosidase inhibitory activity (in words)” value (α-glucosidase [1]) was “significant (p < 0.05) inhibitory activity”.

For `O=c1c(O)c(-c2ccc(O)c(O)c2)oc2cc(O)cc(O)c12` [Quercetin, reference compound], the “aldose reductase inhibitory activity (in words)” value (aldose reductase) was “significant (p < 0.05) inhibitory activity”.

In the case of `COc1cc(OC)c(/C=C2/SC(=O)N(CC(=O)N3CCN(c4ccccc4)CC3)C2=O)c(OC)c1` [TZDD1, (E)-5-(2,4,6-trimethoxybenzylidene)-3-(2-oxo-2-(4-phenylpiperazin-1-yl)ethyl)thiazolidine-2,4-dione], the “α-amylase inhibitory activity (in words)” value (α-amylase) is reported as “showed inhibitory activity”, the “aldose reductase inhibitory activity (in words)” value (aldose reductase) is reported as “concentration-dependent inhibitory activity” and the IC50 (aldose reductase) is reported as 55.3 µM. The “IC50 for the Inhibitory Activity Assays, PTP-1B” value [2] was “unstable”, the “PTP-1B inhibitory activity (in words)” value [2] was “weak inhibitory activity” and the “DPP-4 inhibitory activity (in words)” value (DPP-4) was “very weak inhibitory activity”. The IC50 (DPP-4) was 147 µM.

For `Cc1cc(/C=C2\SC(=O)N(CC(=O)N3CCCC3)C2=O)c(C)n1-c1ccccc1` [TZDD2, (Z)-5-((2,5-Dimethyl-1phenyl-1H-pyrrol-3-yl)methylene)-3-(2-oxo-2-(pyrrolidin-1-yl)ethyl)thiazolidine-2,4-dione], the “α-amylase inhibitory activity (in words)” value (α-amylase) was “showed inhibitory activity”, the IC50 (aldose reductase) was 201 µM and the “PTP-1B inhibitory activity (in words)” value [2] was “weak inhibitory activity”. For the same compound, the IC50 [2] was 334 µM, the DPP-4 inhibition (DPP-4) was at least 20% and the “DPP-4 inhibitory activity (in words)” value (DPP-4) was “relatively higher activity”. For the same compound, the IC50 (DPP-4) was 78 µM and the “Effect on glucose uptake” value (liver cells (HEP-G2)) was “increase glucose uptake”.

With `Cc1cc(/C=C2\SC(=O)N(CC(=O)O)C2=O)c(C)n1-c1ccccc1` [TZDD3, (Z)-2-(5-((2,5-Dimethyl-1-phenyl-1H-pyrrol-3-yl)methylene)-2,4-dioxothiazolidin-3-yl)acetic Acid] the “α-amylase inhibitory activity (in words)” value (α-amylase) was “concentration-dependent inhibitory activity”, the Vmax (α-glucosidase [3]; TZDD3 at 60 µg/mL) was 59.43 and the Vmax (α-glucosidase [3]; TZDD3 at 120 µg/mL) was 32.76. For the same compound, the “aldose reductase inhibitory activity (in words)” value (aldose reductase) was “decreasing inhibition activity”, the IC50 (aldose reductase) was 161 µM and the “IC50 for the Inhibitory Activity Assays, PTP-1B” value [2] was “unstable”. For the same compound, the “DPP-4 inhibitory activity (in words)” value (DPP-4) was “very weak inhibitory activity” and the IC50 (DPP-4) was 213 µM.

`Cc1cc(/C=C2/S/C(=N\c3ccccc3)NC2=O)c(C)n1-c1ccccc1` [TZDD4, (2Z,5E)-5-((2,5-dimethyl-1-phenyl-1H-pyrrol-3-yl)methylene)-2-(phenylimino)thiazolidin-4-one] was tested, and the “α-amylase inhibitory activity (in words)” value (α-amylase) was “showed inhibitory activity”, the IC50 (aldose reductase) was 98.5 µM and the “PTP-1B inhibitory activity (in words)” value [2] was “weak inhibitory activity”. It also gave an IC50 [2] of 693 µM, a DPP-4 inhibition (DPP-4) of at least 20% and an IC50 (DPP-4) of 192 µM.

With insulin the “Effect on glucose uptake” value (liver cells (HEP-G2)) was “enhanced glucose uptake”.
